Measured values from ChEMBL document CHEMBL1131732, “Potential anxiolytic agents. 3. Novel A-ring modified pyrido[1,2-a]benzimidazoles” (Bioorg Med Chem Lett, 1999).

Experiments:
Rattus norvegicus [1] = experiment: Inhibition of experimentally-induced conflict in rats following i.p. administration.; format: functional; settings: ip, read-out: MED
Rattus norvegicus [2] = experiment: Inhibitory activity determined by experimentally-induced conflict test in rats after oral administration; format: functional; settings: read-out: MED
[3] = biological target: GABA-A receptor; anion channel (Rattus norvegicus) (UniProt O09028+P15431+P18506+P18508+P19969+P20236+P23574+P23576+P28471+P28473+P30191+P62813+P63079+P63138+Q91ZM7+Q9ES14); experiment: GABA shift which is the ratio of binding in the absence and presence of GABA (1 mM) was determined; format: protein-complex assay
[4] = biological target: GABA-A receptor; anion channel; experiment: In vitro inhibitory against Gamma-aminobutyric acid A receptor from rat cerebral cortex using [3H]flunitrazepam as the radioligand; format: tissue-based
Mus musculus [5] = experiment: In vivo inhibitory activity against metrazole-induced seizures in mice by peroral administration; format: functional; settings: po
Mus musculus [6] = experiment: In vivo inhibitory activity against metrazole-induced seizures in mice by intraperitoneal administration; format: functional; settings: ip

Row | SMILES | minimal effective dose (Rattus norvegicus [1]) [mg/kg] | minimal effective dose (Rattus norvegicus [2]) [mg/kg] | GS [3] | IC50 [4] [nM] | ED50 (Mus musculus [5]) [mg/kg] | ED50 (Mus musculus [6]) [mg/kg]
1 | Cc1cccc2c1nc1n2CCC(O)=C1C(=O)Nc1ccccc1F | 10 | > 30 | 1.5 | 96.3 | 10 | 1
2 | O=C(Nc1ccccc1F)C1=C(O)CCn2c1nc1cc(F)ccc12 | 10 | > 30 | 1.8 | 1.9 | > 30 | < 1
3 | O=C(Nc1c(F)cccc1F)C1=C(O)CCn2c1nc1cnccc12 |  | 3 | 2.4 | 17.7 |  | > 10
4 | O=C(Nc1ccccc1F)C1=C(O)CCn2c1nc1cc(C(F)(F)F)ccc12 |  | > 10 | 4.7 | 184 |  | 1
5 | COc1ccc2c(c1)nc1n2CCC(O)=C1C(=O)Nc1ccccc1F | > 10 | > 30 | 1.2 | 6.1 | > 10 | > 10
6 | O=C(Nc1ccccc1)C1=C(O)CCn2c1nc1ncccc12 | > 10 | 30 | 3 | 8.3 | < 30 | 3
7 | O=C(Nc1ccccc1F)C1=C(O)CCn2c1nc1ccc(F)c(F)c12 |  | > 10 | 2.5 | 857 | > 1 | > 1
8 | O=C(Nc1ccccc1)C1=C(O)CCn2c1nc1ccc(Cl)cc12 | > 10 | 30 | 2.1 | 174 | > 30 | > 10
9 | O=C(Nc1ccccc1F)C1=C(O)CCn2c1nc1cc(Cl)ccc12 | 10 | > 10 | 1.8 | 5.1 | ~30 | 1
10 | O=C(Nc1ccccc1)C1=C(O)CCn2c1nc1cccnc12 | > 10 | > 30 | 2.1 | 4380 | > 10 | > 10
11 | O=C(Nc1ccccc1F)C1=C(O)CCn2c1nc1cccc(O)c12 | > 1 | > 30 | 2.8 | 14 | > 30 | > 1
12 | COc1ccc2c(c1)nc1n2CCC(O)=C1C(=O)Nc1ccccc1 | > 10 | > 30 | 2.5 | 39.5 | > 10 | 3
13 | COc1cccc2c1nc1n2CCC(O)=C1C(=O)Nc1ccccc1F |  |  | 1.4 | 7.8 |  | 
14 | O=C(Nc1ccccc1F)C1=C(O)CCn2c1nc1ncccc12 | 10 | > 30 | 2.7 | 3.5 | 10 | 1
15 | O=C(Nc1ccccc1F)C1=C(O)CCn2c1nc1ccc3ccccc3c12 |  | > 10 |  | > 1000 | > 30 | > 1
16 | O=C(Nc1c(F)cccc1F)C1=C(O)CCn2c1nc1c(F)cc(F)cc12 |  | > 10 | 2.4 | 30.1 | > 1 | > 1
17 | O=C(Nc1c(F)cccc1F)C1=C(O)CCn2c1nc1c(Cl)cccc12 | 10 | > 10 | 1.7 | 1.1 | 10 | 0.3

Row | SMILES | minimal effective dose (Rattus norvegicus [1]) [mg/kg] | minimal effective dose (Rattus norvegicus [2]) [mg/kg] | GS [3] | IC50 [4] [nM] | ED50 (Mus musculus [5]) [mg/kg] | ED50 (Mus musculus [6]) [mg/kg]
18 | O=C(Nc1ccccc1F)C1=C(O)CCn2c1nc1c(F)cc(F)cc12 |  | > 10 | 1.2 | 19.8 | > 1 | > 1
19 | O=C(Nc1c(F)cccc1F)C1=C(O)CCn2c1nc1c(F)c(F)ccc12 |  | 3 | 1.4 | 1.1 | 0.2 | 0.2
20 | O=C(Nc1ccccc1F)C1=C(O)CCn2c1nc1cccnc12 | > 10 | > 30 | 1.3 | 291 | > 10 | > 10
21 | O=C(Nc1ccccc1F)C1=C(O)CCn2c1nc1cc3ccccc3cc12 | 10 | > 10 | 1 | 17 | > 30 | 1
22 | O=C(Nc1ccccc1F)C1=C(O)CCn2c1nc1c3ccccc3ccc12 |  | > 10 | 2.8 | 154 | > 30 | > 1
23 | Cc1cccc2c1nc1n2CCC(O)=C1C(=O)Nc1ccccc1 | > 10 | > 30 | 2.8 | 10.1 | > 10 | ~1
24 | COc1cccc2c1nc1n2CCC(O)=C1C(=O)Nc1c(F)cccc1F |  |  | 3.7 | 156 |  | 
25 | O=C(Nc1ccccc1F)C1=C(O)CCn2c1nc1c(F)c(F)ccc12 |  | 10 | 1.7 | 1.4 | 0.2 | 0.2
26 | O=C(Nc1ccccc1F)C1=C(O)CCn2c1nc1c(Cl)cccc12 | 10 | > 10 | 1.8 | 7.1 | > 30 | 1
27 | O=C(Nc1ccccc1)C1=C(O)CCn2c1nc1cc(Cl)ccc12 | 10 | > 30 | 1.6 | 65.6 | 20 | 1
28 | CN1C(=O)CN=C(c2ccccc2)c2cc(Cl)ccc21 [DIAZEPAM] | 5 | 10 | 2.2 |  | 0.5 | 0.11
29 | O=C(Nc1c(F)cccc1F)C1=C(O)CCn2c1nc1cc(Cl)ccc12 | 10 | 10 | 2.2 | 6.3 | 10 | 1
30 | O=C(Nc1c(F)cccc1F)C1=C(O)CCn2c1nc1cc(F)ccc12 | 3 | 3 | 2.2 | 6.3 | 3 | 0.3
31 | O=C(Nc1c(F)cccc1F)C1=C(O)CCn2c1nc1ccc(F)c(F)c12 |  | > 10 | 1.7 | 66.2 | > 1 | > 1
32 | O=C(Nc1c(F)cccc1F)C1=C(O)CCn2c1nc1ncccc12 | > 10 | > 10 | 1.8 | 30.1 | 30 | 3
33 | O=C(Nc1ccccc1F)C1=C(O)CCn2c1nc1c(O)cccc12 |  | > 10 | 3 | 10.4 |  | 
34 | O=C(Nc1ccccc1)C1=C(O)CCn2c1nc1cc(O)ccc12 | > 30 | > 30 | 1.1 | 40.5 | > 30 | > 30
